Reference: ChEMBL document CHEMBL4428091, “Design and optimization of (3-aryl-1H-indazol-6-yl)spiro[cyclopropane-1,3'-indolin]-2'-ones as potent PLK4 inhibitors with oral antitumor efficacy” (Bioorg Med Chem Lett, 2016)

How the values were obtained:
[1] = target: T1, Serine/threonine-protein kinase PLK4 (Homo sapiens, UniProt O00444); experiment: Inhibition of PLK4 (unknown origin)
T1 sequence (O00444 whole entry): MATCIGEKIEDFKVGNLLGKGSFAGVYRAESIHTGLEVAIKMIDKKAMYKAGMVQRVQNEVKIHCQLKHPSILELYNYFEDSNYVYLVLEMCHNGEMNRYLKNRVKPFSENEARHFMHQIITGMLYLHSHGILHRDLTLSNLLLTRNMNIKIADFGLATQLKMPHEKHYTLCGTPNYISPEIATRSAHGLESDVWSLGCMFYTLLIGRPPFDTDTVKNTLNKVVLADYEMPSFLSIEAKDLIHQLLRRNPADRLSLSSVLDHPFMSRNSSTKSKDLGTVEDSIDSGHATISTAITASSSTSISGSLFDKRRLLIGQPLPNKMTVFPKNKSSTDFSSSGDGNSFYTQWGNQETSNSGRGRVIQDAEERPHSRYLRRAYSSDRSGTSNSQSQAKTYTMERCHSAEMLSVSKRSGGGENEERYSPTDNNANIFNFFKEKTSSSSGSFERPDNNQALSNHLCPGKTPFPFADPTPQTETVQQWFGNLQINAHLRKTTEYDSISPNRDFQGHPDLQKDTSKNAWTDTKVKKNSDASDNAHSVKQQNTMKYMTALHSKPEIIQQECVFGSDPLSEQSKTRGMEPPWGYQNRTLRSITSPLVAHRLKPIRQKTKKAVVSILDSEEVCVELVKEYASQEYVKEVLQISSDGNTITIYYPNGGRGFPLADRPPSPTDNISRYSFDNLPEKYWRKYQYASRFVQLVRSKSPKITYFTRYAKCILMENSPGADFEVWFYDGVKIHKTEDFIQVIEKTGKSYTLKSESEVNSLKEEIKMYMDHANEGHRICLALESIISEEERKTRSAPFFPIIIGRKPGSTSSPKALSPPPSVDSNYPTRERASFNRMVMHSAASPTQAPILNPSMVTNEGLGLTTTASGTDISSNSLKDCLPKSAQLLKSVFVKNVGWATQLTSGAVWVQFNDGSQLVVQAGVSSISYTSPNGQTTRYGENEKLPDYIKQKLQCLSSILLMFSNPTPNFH

[2] = target: T2, Receptor-type tyrosine-protein kinase FLT3 (Homo sapiens, UniProt P36888); experiment: Inhibition of FLT3 (unknown origin)
T2 sequence (P36888 whole entry): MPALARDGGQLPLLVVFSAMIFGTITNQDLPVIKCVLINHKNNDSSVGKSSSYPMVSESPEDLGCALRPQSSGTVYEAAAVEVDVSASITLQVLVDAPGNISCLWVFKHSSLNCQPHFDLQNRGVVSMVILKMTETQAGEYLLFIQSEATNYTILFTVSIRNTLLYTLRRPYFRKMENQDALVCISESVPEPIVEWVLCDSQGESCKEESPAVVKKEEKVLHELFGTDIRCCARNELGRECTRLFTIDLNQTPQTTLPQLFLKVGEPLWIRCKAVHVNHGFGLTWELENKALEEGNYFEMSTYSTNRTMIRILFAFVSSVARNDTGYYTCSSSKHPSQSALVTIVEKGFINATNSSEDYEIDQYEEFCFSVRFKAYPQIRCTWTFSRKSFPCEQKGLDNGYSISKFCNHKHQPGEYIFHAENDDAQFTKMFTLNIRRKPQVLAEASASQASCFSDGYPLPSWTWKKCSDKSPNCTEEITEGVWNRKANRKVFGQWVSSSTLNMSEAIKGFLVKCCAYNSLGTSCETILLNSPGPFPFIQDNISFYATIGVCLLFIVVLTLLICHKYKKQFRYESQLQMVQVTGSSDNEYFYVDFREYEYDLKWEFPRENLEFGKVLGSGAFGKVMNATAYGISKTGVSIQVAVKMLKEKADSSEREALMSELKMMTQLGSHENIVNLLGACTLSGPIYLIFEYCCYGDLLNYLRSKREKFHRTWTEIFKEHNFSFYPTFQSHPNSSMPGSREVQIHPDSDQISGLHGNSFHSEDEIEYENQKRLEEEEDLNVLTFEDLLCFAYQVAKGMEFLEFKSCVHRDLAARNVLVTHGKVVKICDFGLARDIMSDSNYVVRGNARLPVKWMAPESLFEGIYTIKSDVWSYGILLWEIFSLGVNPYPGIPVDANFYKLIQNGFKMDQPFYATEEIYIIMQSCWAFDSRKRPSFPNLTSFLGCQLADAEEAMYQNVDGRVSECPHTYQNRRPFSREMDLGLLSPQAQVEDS

MDA-MB-468 = experiment: Growth inhibition of human MDA-MB-468 cells; format: functional
[3] = target: Vascular endothelial growth factor receptor 2 (Homo sapiens, UniProt P35968); experiment: Inhibition of KDR (unknown origin)
Chain of Vascular endothelial growth factor receptor 2 (P35968 whole entry): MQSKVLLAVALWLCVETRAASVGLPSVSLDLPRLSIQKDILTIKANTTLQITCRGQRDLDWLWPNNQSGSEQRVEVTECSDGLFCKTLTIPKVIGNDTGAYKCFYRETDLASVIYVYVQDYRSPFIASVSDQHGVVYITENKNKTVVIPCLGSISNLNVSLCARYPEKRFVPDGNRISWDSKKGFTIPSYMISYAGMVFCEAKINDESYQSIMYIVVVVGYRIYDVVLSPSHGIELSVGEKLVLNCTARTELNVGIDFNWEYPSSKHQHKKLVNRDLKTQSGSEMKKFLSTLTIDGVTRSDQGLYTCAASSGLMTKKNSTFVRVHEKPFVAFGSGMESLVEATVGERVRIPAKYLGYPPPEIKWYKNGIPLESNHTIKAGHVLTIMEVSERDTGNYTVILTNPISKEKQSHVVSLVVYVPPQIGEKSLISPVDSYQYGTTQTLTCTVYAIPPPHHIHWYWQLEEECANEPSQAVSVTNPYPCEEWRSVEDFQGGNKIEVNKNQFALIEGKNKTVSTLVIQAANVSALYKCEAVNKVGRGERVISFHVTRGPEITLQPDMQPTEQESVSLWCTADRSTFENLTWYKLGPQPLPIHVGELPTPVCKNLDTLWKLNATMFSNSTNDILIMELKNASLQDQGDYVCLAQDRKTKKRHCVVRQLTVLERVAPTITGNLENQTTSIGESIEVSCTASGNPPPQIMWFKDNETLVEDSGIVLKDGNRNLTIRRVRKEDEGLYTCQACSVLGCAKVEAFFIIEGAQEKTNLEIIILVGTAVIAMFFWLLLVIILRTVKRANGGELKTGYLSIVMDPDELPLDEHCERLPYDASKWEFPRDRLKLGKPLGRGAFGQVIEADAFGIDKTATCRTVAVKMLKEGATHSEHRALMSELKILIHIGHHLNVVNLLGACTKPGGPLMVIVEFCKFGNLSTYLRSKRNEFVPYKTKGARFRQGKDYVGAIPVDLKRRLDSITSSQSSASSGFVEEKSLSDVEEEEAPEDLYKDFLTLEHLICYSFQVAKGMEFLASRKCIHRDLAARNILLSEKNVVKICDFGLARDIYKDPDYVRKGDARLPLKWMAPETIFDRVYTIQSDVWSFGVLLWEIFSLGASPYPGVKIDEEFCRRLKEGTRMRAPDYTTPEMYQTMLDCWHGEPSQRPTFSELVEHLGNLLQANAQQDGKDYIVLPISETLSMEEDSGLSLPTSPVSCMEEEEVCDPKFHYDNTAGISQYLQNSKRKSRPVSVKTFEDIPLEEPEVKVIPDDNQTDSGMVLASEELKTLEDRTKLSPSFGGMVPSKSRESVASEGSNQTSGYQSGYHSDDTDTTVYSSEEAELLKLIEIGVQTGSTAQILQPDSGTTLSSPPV

Aurora kinase A = target: T3, Aurora kinase A (Homo sapiens, UniProt O14965); experiment: Inhibition of AURKA (unknown origin)
T3 sequence (O14965 whole entry): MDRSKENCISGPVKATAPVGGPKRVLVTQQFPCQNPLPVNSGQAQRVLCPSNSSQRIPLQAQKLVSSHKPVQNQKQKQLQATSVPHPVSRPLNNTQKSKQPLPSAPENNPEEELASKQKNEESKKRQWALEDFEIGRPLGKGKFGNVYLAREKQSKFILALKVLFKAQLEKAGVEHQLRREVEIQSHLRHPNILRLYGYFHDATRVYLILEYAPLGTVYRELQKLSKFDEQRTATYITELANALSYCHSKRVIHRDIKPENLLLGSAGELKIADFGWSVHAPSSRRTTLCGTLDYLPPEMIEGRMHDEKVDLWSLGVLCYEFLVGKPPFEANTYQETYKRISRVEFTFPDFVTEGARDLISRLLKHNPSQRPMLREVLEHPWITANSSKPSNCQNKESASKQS

Aurora kinase B = Aurora kinase B (Homo sapiens, UniProt Q96GD4); experiment: Inhibition of AURKB (unknown origin)
Chain of Aurora kinase B (Q96GD4 whole entry): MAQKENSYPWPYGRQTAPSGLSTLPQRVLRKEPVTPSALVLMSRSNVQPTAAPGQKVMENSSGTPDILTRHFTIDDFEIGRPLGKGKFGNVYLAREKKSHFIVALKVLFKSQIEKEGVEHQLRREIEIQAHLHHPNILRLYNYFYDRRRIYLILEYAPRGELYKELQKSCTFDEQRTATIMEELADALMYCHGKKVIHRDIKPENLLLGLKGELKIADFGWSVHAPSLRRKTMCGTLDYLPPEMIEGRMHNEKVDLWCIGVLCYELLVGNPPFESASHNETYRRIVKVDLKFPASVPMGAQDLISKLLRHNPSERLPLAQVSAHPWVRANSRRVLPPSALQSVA

MCF7 = experiment: Growth inhibition of human MCF7; format: functional
HCC1954 = experiment: Growth inhibition of human HCC1954; format: functional
[4] = Lipophilicity, log D of the compound at pH 7.4; format: physicochemical; settings: buffer
CYP2C9 = CYP2C9 (Homo sapiens, UniProt P11712); experiment: Inhibition of CYP2C9 (unknown origin) at 1 uM; format: ADME
Chain of CYP2C9 (P11712 whole entry): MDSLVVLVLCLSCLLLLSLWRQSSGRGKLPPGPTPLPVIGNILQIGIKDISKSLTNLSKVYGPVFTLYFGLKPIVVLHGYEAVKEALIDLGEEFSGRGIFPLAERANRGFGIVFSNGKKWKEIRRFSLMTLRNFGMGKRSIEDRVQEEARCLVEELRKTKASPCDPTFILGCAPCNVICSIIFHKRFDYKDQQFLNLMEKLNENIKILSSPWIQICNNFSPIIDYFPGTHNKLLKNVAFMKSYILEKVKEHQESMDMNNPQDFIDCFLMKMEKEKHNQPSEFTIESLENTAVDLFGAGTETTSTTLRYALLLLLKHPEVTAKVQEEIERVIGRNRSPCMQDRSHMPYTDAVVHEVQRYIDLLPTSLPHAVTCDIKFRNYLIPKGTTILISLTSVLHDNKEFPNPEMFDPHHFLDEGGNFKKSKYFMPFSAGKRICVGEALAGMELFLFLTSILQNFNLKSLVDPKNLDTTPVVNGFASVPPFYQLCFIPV

CYP2C19 = CYP2C19 (Homo sapiens, UniProt P33261); experiment: Inhibition of CYP2C19 (unknown origin) at 1 uM; format: ADME
Chain of CYP2C19 (P33261 whole entry): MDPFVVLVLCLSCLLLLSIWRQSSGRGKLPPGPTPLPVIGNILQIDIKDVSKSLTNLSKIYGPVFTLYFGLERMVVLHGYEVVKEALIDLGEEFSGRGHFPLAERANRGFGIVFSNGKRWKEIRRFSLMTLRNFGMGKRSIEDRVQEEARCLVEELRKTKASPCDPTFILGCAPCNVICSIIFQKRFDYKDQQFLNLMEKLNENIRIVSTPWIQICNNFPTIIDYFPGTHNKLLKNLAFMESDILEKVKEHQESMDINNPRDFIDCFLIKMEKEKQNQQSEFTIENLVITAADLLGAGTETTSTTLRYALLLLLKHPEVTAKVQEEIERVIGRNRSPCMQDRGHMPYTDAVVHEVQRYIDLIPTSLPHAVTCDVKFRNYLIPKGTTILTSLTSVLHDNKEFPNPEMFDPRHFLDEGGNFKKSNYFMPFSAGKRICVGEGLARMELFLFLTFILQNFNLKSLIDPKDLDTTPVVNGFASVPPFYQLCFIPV

CYP3A4 = CYP3A4 (Homo sapiens, UniProt P08684); experiment: Inhibition of CYP3A4 (unknown origin) at 1 uM; format: ADME
Chain of CYP3A4 (P08684 whole entry): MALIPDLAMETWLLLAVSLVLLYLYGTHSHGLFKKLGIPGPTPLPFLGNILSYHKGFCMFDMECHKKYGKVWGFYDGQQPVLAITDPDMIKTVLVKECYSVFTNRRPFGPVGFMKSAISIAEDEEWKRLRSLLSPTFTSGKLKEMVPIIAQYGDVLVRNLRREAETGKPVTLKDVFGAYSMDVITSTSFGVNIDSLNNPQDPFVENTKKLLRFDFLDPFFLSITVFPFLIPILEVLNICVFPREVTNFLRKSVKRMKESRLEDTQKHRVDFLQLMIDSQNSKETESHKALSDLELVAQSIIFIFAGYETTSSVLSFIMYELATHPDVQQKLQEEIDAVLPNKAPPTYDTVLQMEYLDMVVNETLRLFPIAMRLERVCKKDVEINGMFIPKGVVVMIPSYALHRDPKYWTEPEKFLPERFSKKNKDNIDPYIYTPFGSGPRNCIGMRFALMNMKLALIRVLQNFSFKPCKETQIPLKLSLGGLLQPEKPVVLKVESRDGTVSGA

[5] = Half life in mouse microsomes; format: ADME, Microsome
[6] = Half life in human microsomes; format: ADME, Microsome
[7] = Clearance in rat at 1 mg/kg, iv; format: ADME, organism-based; settings: in vivo
[8] = Half life in rat at 1 mg/kg, iv; format: ADME, organism-based; settings: in vivo
[9] = AUC in rat at 1 mg/kg, iv; format: ADME, organism-based; settings: in vivo
[10] = AUC in rat at 5 mg/kg, po; format: ADME, organism-based; settings: in vivo
[11] = Oral bioavailability in rat at 5 mg/kg; format: ADME, organism-based; settings: in vivo
[12] = Cmax in mouse at 25 mg/kg, po; format: ADME, organism-based; design: dose 25 mg/kg, route oral; settings: in vivo
[13] = AUC in mouse at 25 mg/kg, po; format: ADME, organism-based; settings: in vivo

Compound | IC50 [1] [nM] | IC50 [2] [nM] | GI50 (MDA-MB-468) [nM] | IC50 (Aurora kinase A) [nM] | IC50 (Aurora kinase B) [nM] | GI50 (MCF7) [nM] | GI50 (HCC1954) [nM] | logD [4] | inhibition at 1 µM (CYP2C9) [%] | inhibition at 1 µM (CYP2C19) [%] | inhibition at 1 µM (CYP3A4) [%] | half-life [5] [min] | half-life [6] [min] | clearance [7] [mL/min/kg] | half-life [8] [min] | AUC [9] [ng·h/mL] | bioavailability [11] [%] | other results
O=C1Nc2ccccc2C1=Cc1ccc2c(-c3cccnc3)n[nH]c2c1 | 29 | 27 | 5000 | – | – | – | – | – | – | – | – | – | – | – | – | – | – | –
O=C1Nc2ccccc2C1=Cc1ccc2c(-c3ccncc3)n[nH]c2c1 | 220 | 120 | 9900 | – | – | – | – | – | – | – | – | – | – | – | – | – | – | –
COc1ccc2c(c1)[C@]1(C[C@H]1c1ccc3c(-c4ccc(N5CCN(C)CC5)nc4)n[nH]c3c1)C(=O)N2 (racemic) | 1 | 260 | 120 | – | – | – | – | – | – | – | – | – | – | – | – | – | – | –
COc1ccc2c(c1)[C@]1(C[C@H]1c1ccc3c(-c4ccnc(N5CCN(C)CC5)c4)n[nH]c3c1)C(=O)N2 (racemic) | 2.1 | 320 | 380 | – | – | – | – | – | – | – | – | – | – | – | – | – | – | –
COc1ccc2c(c1)[C@]1(C[C@H]1c1ccc3c(-c4ccc(N5CCN(CCO)CC5)cc4)n[nH]c3c1)C(=O)N2 | 1.2 | 77 | 68 | > 1000 | 7 | 1700 | 3000 | 4 | 41 | 28 | 11 | 28 | > 60 | 76.7 | 84 | 220 | 11 | Cmax ([12]; read-out: Cmax): 250 ng/mL; AUC [13]: 270 ng·h/mL; AUC ([10]; read-out: AUC): 130 ng·h/mL

Further lines, with some results ahead:

IC50 [1] [nM] | IC50 [2] [nM] | GI50 (MDA-MB-468) [nM] | IC50 (Aurora kinase A) [nM] | IC50 (Aurora kinase B) [nM] | GI50 (MCF7) [nM] | GI50 (HCC1954) [nM] | logD [4] | inhibition at 1 µM (CYP2C9) [%] | inhibition at 1 µM (CYP2C19) [%] | inhibition at 1 µM (CYP3A4) [%] | half-life [5] [min] | half-life [6] [min] | clearance [7] [mL/min/kg] | half-life [8] [min] | AUC [9] [ng·h/mL] | bioavailability [11] [%] | Compound | other results
2.4 | 28 | 1300 to 3700 | 700 | 35 | 5400 | 5900 | 3.5 | 60 | 64 | 19 | 4 | 13 | 178 | 78 | 94 | 2 | COc1ccc2c(c1)C(=Cc1ccc3c(-c4ccc(N5CCN(C)CC5)nc4)n[nH]c3c1)C(=O)N2 | IC50 [3]: 630 nM; AUC ([10]; read-out: AUC): 24 ng·h/mL
13 | 17 | 1300 | – | – | – | – | – | – | – | – | – | – | – | – | – | – | CN1CCN(c2ccc(-c3n[nH]c4cc(C=C5C(=O)Nc6ccccc65)ccc34)cn2)CC1 | –
1.2 | 230 | 5.8 | > 1000 | 13 | 30 | 8800 | 3.4 | 44 | 54 | -3 | 43 | > 60 | – | – | – | – | COc1ccc2c(c1)[C@]1(C[C@H]1c1ccc3c(-c4ccc(N5C[C@@H](C)N[C@@H](C)C5)cc4)n[nH]c3c1)C(=O)N2 | IC50 [3]: > 5000 nM; Cmax ([12]; read-out: Cmax): 110 ng/mL; AUC [13]: 170 ng·h/mL
– | 240 | 890 | – | – | – | – | – | – | – | – | – | – | – | – | – | – | COc1ccc2c(c1)[C@]1(C[C@H]1c1ccc3c(-c4ccc(N5CCC(O)CC5)nc4)n[nH]c3c1)C(=O)N2 (racemic) | –
– | – | – | – | – | – | – | 4.5 | 67 | 83 | 55 | 4 | 24 | 107 | 306 | 170 | < 1 | CN1CCN(c2ccc(/C=C/c3n[nH]c4cc(/C=C5/C(=O)Nc6ccccc65)ccc34)cn2)CC1 | Cmax ([12]; BLD = below limit of detection): Bld; AUC ([10]; BLD = below limit of detection): Bld
